Read-outs that look alike come from different tables or passages of the source. A value given as a limit tells only on which side of the number the result lay.

What all share (format): cell-based
Assay [1] relates to 4EBP1 T37/T46 phosphorylation (mTORC1). The experiment in a line: AlphaLISA/MSD analysis of 4EBP1 phosphorylation in MDA-MB-468 cells. The conditions noted are these: for IC50: Homo sapiens, read-out: p4EBP1 IC50; for reduction in mTORC1 p4EBP1 activity on going from 8 PEG units to 6 PEG units: versus the 8 PEG analog. How it is done:
(§1) Cell culture and reagents. Cells were obtained from ATCC, grown in appropriate medium supplemented with 10% fetal bovine serum and 1% penicillin/streptomycin and maintained at 37 °C in a humidified incubator at 5% CO 2.
(§2) AlphaLISA and MesoScale Discovery (MSD) analysis of 4EBP1, S6K and AKT phosphorylation. mTOR substrate phosphorylation in MDA-MB-468 cells was assayed using AlphaLISA SureFire Ultra kits for p4EBP1 Thr37/46, p-P70S6K Thr389 and p-AKT1/2/3 Ser473 (PerkinElmer), and MSD Multi-Array Assay Systems for Phospho-4EBP1 (Thr37/46) and Phospho-AKT (Ser473) (MSD). Cells were seeded at 25,000 cells per well and exposed the next day to serial three-fold dilutions of compounds in complete medium with 0.1% dimethylsulfoxide (DMSO). After indicated incubation times, cells were lysed and AlphaLISA or MSD performed according to the manufacturers’ protocols. Samples were read using an EnVision Multilabel Plate Reader (PerkinElmer) using standard AlphaLISA settings or using an MSD plate reader. Data were plotted as a function of logM [compound] with a sigmoidal concentration response (variable slope) model fitted to the data to estimate the inhibitor half-maximum effective concentration (EC 50) in Prism 7 (GraphPad). Alternatively, results were analyzed as percentage of control in which 0% was set as signal from 1 μM Torin1 and 100% was set as the mean of DMSO wells on each plate, and inhibitor EC 50 was estimated as described
For orientation: Alpha assays give light when donor and acceptor beads are brought close together.

For assay [2], the system named is p-P70S6K Thr389. The experiment in a line: AlphaLISA/MSD analysis of S6K phosphorylation in MDA-MB-468 cells. To be noted: Homo sapiens; MDA-MB-468 cells; read-out: pS6K IC50. As to the method: as §1, §2
Assay [3] has as its system AKT S473 phosphorylation (mTORC2). The experiment in a line: AlphaLISA/MSD analysis of AKT phosphorylation in MDA-MB-468 cells. To be noted: for IC50: Homo sapiens. How it is done: as §1, §2
Setting [4] is: MDA-MB-468 cells, read-out: pAKT IC50.
[5] abbreviates: up to a maximal test concentration of 1 μM.

A word on the IC50: it is the concentration at which inhibition is half-maximal. For the molecule `CO[C@H]1C[C@@H]2CC[C@@H](C)[C@@](O)(O2)C(=O)C(=O)N2CCCC[C@H]2C(=O)O[C@H]([C@H](C)C[C@@H]2CC[C@@H](OCCCCc3cn(CCOCCOCCOCCOCCOCCOCCOCCOCCC(=O)NCCCCn4nc(-c5cnc6[nH]ccc6c5)c5c(N)ncnc54)nn3)[C@H](OC)C2)CC(=O)[C@H](C)/C=C(\C)[C@@H](O)[C@@H](OC)C(=O)[C@H](C)C[C@H](C)/C=C/C=C/C=C/1C` [compound 20], the IC50 in assay [1] (MDA-MB-468 cells) came out at 1 nM; in assay [2] it was 0.22 nM; in assay [3] (setting [4]), 17 nM.
As for `CO[C@H]1C[C@@H]2CC[C@@H](C)[C@@](O)(O2)C(=O)C(=O)N2CCCC[C@H]2C(=O)O[C@H]([C@H](C)C[C@@H]2CC[C@@H](OC(=O)NCCOCCOCCOCCOCCOCCOCCOCCOCCC(=O)NCCS(=O)(=O)c3ccc(C(=O)N4CCOc5ccc(-c6ccc(N)nc6)cc5C4)c(C)c3F)[C@H](OC)C2)CC(=O)[C@H](C)/C=C(\C)[C@@H](O)[C@@H](OC)C(=O)[C@H](C)C[C@H](C)/C=C/C=C/C=C/1C` [compound 31], the results for the concentration for half-maximal inhibition (IC50) in assay [1] (MDA-MB-468 cells), in assay [2] and in assay [3] (setting [4]) were 0.7 nM, 0.23 nM and 2.9 nM, respectively.
For `CO[C@H]1C[C@@H]2CC[C@@H](C)[C@@](O)(O2)C(=O)C(=O)N2CCCC[C@H]2C(=O)O[C@H]([C@H](C)C[C@@H]2CC[C@@H](OC(=O)NCCOCCOCCOCCOCCOCCOCCOCCOCCC(=O)NCCCCn3nc(-c4ccc5oc(N)nc5c4)c4c(N)ncnc43)[C@H](OC)C2)CC(=O)[C@H](C)/C=C(\C)[C@@H](O)[C@@H](OC)C(=O)[C@H](C)C[C@H](C)/C=C/C=C/C=C/1C` [compound 29] the same measures were 1.7 nM, 0.61 nM and 3.6 nM.
On to `CO[C@H]1C[C@@H]2CC[C@@H](C)[C@@](O)(O2)C(=O)C(=O)N2CCCC[C@H]2C(=O)O[C@H]([C@H](C)C[C@@H]2CC[C@@H](OCCCCc3cn(CCOCCOCCOCCOCCOCCC(=O)NCCCCn4nc(-c5ccc6oc(N)nc6c5)c5c(N)ncnc54)nn3)[C@H](OC)C2)CC(=O)[C@H](C)/C=C(\C)[C@@H](O)[C@@H](OC)C(=O)[C@H](C)C[C@H](C)/C=C/C=C/C=C/1C` [compound 28], for which the half-maximal inhibitory concentration (IC50) in assay [1] (MDA-MB-468 cells) was determined as 25 nM; in assay [2] it was 0.37 nM; in assay [3] (setting [4]), 33 nM.
Turning to `CO[C@H]1C[C@@H]2CC[C@@H](C)[C@@](O)(O2)C(=O)C(=O)N2CCCC[C@H]2C(=O)O[C@H]([C@H](C)C[C@@H]2CC[C@@H](OCCCCc3cn(CCOCCOCCOCCOCCOCCOCCOCCOCCC(=O)NCCCCn4nc(-c5cc6cc(O)ccc6[nH]5)c5c(N)ncnc54)nn3)[C@H](OC)C2)CC(=O)[C@H](C)/C=C(\C)[C@@H](O)[C@@H](OC)C(=O)[C@H](C)C[C@H](C)/C=C/C=C/C=C/1C` [compound 18], the IC50 was determined as 1.4 nM in assay [1] (MDA-MB-468 cells), 0.28 nM in assay [2] and 18 nM in assay [3] (setting [4]). For the same molecule, the “selectivity for mTORC1 over mTORC2” value in assay [1] (pAKT versus p4EBP1 inhibition, MDA-MB-468 cells) is reported as “approximately 13 fold”.
For `CO[C@H]1C[C@@H]2CC[C@@H](C)[C@@](O)(O2)C(=O)C(=O)N2CCCC[C@H]2C(=O)O[C@H]([C@H](C)C[C@@H]2CC[C@@H](OC(=O)NCCOCCOCCOCCOCCOCCOCCOCCOCCC(=O)N3CCc4cc(Cn5nc(-c6ccc7oc(N)nc7c6)c6c(N)ncnc65)ccc4C3)[C@H](OC)C2)CC(=O)[C@H](C)/C=C(\C)[C@@H](O)[C@@H](OC)C(=O)[C@H](C)C[C@H](C)/C=C/C=C/C=C/1C` [compound 30], the IC50 in assay [1] (MDA-MB-468 cells) was determined as 0.42 nM; in assay [2], 0.19 nM; in assay [3] (setting [4]), 4.7 nM.
For `CO[C@H]1C[C@@H]2CC[C@@H](C)[C@@](O)(O2)C(=O)C(=O)N2CCCC[C@H]2C(=O)O[C@H]([C@H](C)C[C@@H]2CC[C@@H](OCCCCc3cn(CCOCCOCCOCCOCCOCCOCCC(=O)NCCCCn4nc(-c5ccc6oc(N)nc6c5)c5c(N)ncnc54)nn3)[C@H](OC)C2)CC(=O)[C@H](C)/C=C(\C)[C@@H](O)[C@@H](OC)C(=O)[C@H](C)C[C@H](C)/C=C/C=C/C=C/1C` [compound 27] the same measures were 1.1 nM, 0.26 nM and 5.2 nM.
The matching figures for `COc1ccc(-c2ccc3ncc4c(c3c2)n(C)c(=O)n4-c2ccc(N3CCN(C(=O)CCOCCOCCOCCOCCOCCOCCOCCOCCn4cc(CCCCO[C@@H]5CC[C@@H](C[C@@H](C)[C@@H]6CC(=O)[C@H](C)/C=C(\C)[C@@H](O)[C@@H](OC)C(=O)[C@H](C)C[C@H](C)/C=C/C=C/C=C(\C)[C@@H](OC)C[C@@H]7CC[C@@H](C)[C@@](O)(O7)C(=O)C(=O)N7CCCC[C@H]7C(=O)O6)C[C@H]5OC)nn4)CC3)c(C(F)(F)F)c2)cn1` [compound 19]: 0.06 nM, 0.02 nM and 0.52 nM.
The matching figures for `CO[C@H]1C[C@@H]2CC[C@@H](C)[C@@](O)(O2)C(=O)C(=O)N2CCCC[C@H]2C(=O)O[C@H]([C@H](C)C[C@@H]2CC[C@@H](OCCOCc3cn(CCOCCOCCOCCOCCOCCOCCOCCOCCC(=O)NCCCCn4nc(-c5cc6cc(O)ccc6[nH]5)c5c(N)ncnc54)nn3)[C@H](OC)C2)CC(=O)[C@H](C)/C=C(\C)[C@@H](O)[C@@H](OC)C(=O)[C@H](C)C[C@H](C)/C=C/C=C/C=C/1C` [compound 17, reference compound]: 2.5 nM, 0.47 nM and 24 nM.
For `CO[C@H]1C[C@@H]2CC[C@@H](C)[C@@](O)(O2)C(=O)C(=O)N2CCCC[C@H]2C(=O)O[C@H]([C@H](C)C[C@@H]2CC[C@@H](OCCCCc3cn(CCOCCOCCOCCOCCOCCOCCC(=O)NCCCCn4nc(-c5cc6cc(O)ccc6[nH]5)c5c(N)ncnc54)nn3)[C@H](OC)C2)CC(=O)[C@H](C)/C=C(\C)[C@@H](O)[C@@H](OC)C(=O)[C@H](C)C[C@H](C)/C=C/C=C/C=C/1C` [compound 25], the results for the IC50 in assay [1] (MDA-MB-468 cells), in assay [2] and in assay [3] (setting [4]) were 370 nM, 0.59 nM and 120 nM, respectively. Also, the “reduction in mTORC1 p4EBP1 activity on going from 8 PEG units to 6 PEG units” value in assay [1] is given as more than 250 fold.
`COc1ccc(-c2ccc3ncc4c(c3c2)n(-c2ccc(N3CCN(C(=O)CCOCCOCCOCCOCCOCCOCCn5cc(CCCCO[C@@H]6CC[C@@H](C[C@@H](C)[C@@H]7CC(=O)[C@H](C)/C=C(\C)[C@@H](O)[C@@H](OC)C(=O)[C@H](C)C[C@H](C)/C=C/C=C/C=C(\C)[C@@H](OC)C[C@@H]8CC[C@@H](C)[C@@](O)(O8)C(=O)C(=O)N8CCCC[C@H]8C(=O)O7)C[C@H]6OC)nn5)CC3)c(C(F)(F)F)c2)c(=O)n4C)cn1` [compound 26]: the IC50 in assay [1] (MDA-MB-468 cells) amounted to 0.08 nM; in assay [2] it was 0.03 nM; in assay [3] (setting [4]), 0.74 nM.
Regarding `CO[C@H]1C[C@@H]2CC[C@@H](C)[C@@](O)(O2)C(=O)C(=O)N2CCCC[C@H]2C(=O)O[C@H]([C@H](C)C[C@@H]2CC[C@@H](OCCCCc3cn(CCOCCOCCOCCOCCOCCOCCOCCOCCC(=O)NCCCCn4nc(-c5ccc6oc(N)nc6c5)c5c(N(C)C)ncnc54)nn3)[C@H](OC)C2)CC(=O)[C@H](C)/C=C(\C)[C@@H](O)[C@@H](OC)C(=O)[C@H](C)C[C@H](C)/C=C/C=C/C=C/1C` [compound 23], the IC50 was more than 1000 nM in assay [1] (MDA-MB-468 cells), 0.29 nM in assay [2] and more than 1000 nM in assay [3] (setting [4]). Further, the p4EBP1 inhibition result in assay [1] (setting [5]) is “inactive”. In addition, in assay [3] (setting [5]), the pAKT inhibition entry was “inactive”.
As to `CO[C@H]1C[C@@H]2CC[C@@H](C)[C@@](O)(O2)C(=O)C(=O)N2CCCC[C@H]2C(=O)O[C@H]([C@H](C)C[C@@H]2CC[C@@H](OCCOCc3cn(CCOCCOCCOCCOCCOCCOCCOCCOCCC(=O)NCCCCn4nc(-c5ccc6oc(N)nc6c5)c5c(N)ncnc54)nn3)[C@H](OC)C2)CC(=O)[C@H](C)/C=C(\C)[C@@H](O)[C@@H](OC)C(=O)[C@H](C)C[C@H](C)/C=C/C=C/C=C/1C` [compound 3, RapaLink-1, reference compound], the IC50 in assay [1] (MDA-MB-468 cells) is 1.7 nM; in assay [2], 0.93 nM; in assay [3] (setting [4]), 6.7 nM.
Take `Nc1ncnc2c1c(-c1cnc3[nH]ccc3c1)nn2C1CCCC1` [compound 8, PP121, reference compound]: the IC50 in assay [3] (MDA-MB-468, read-out: pAKT IC50) was 100 nM.
With `CO[C@H]1C[C@@H]2CC[C@@H](C)[C@@](O)(O2)C(=O)C(=O)N2CCCC[C@H]2C(=O)O[C@H]([C@H](C)C[C@@H]2CC[C@@H](OCCCCc3cn(CCOCCOCCOCCOCCOCCOCCOCCOCCC(=O)N4CCC(Cn5nc(-c6ccc7oc(N)nc7c6)c6c(N)ncnc65)CC4)nn3)[C@H](OC)C2)CC(=O)[C@H](C)/C=C(\C)[C@@H](O)[C@@H](OC)C(=O)[C@H](C)C[C@H](C)/C=C/C=C/C=C/1C` [compound 22], the half-inhibitory concentration (IC50) was determined as 0.67 nM in assay [1] (MDA-MB-468 cells), 0.16 nM in assay [2] and 1.8 nM in assay [3] (setting [4]).
For `CO[C@H]1C[C@@H]2CC[C@@H](C)[C@@](O)(O2)C(=O)C(=O)N2CCCC[C@H]2C(=O)O[C@H]([C@H](C)C[C@@H]2CC[C@@H](OCCCCc3cn(CCOCCOCCOCCOCCOCCOCCC(=O)NCCCCn4nc(-c5cnc6[nH]ccc6c5)c5c(N)ncnc54)nn3)[C@H](OC)C2)CC(=O)[C@H](C)/C=C(\C)[C@@H](O)[C@@H](OC)C(=O)[C@H](C)C[C@H](C)/C=C/C=C/C=C/1C` [compound 24], the IC50 was 31 nM in assay [1] (MDA-MB-468 cells), 0.24 nM in assay [2] and 110 nM in assay [3] (setting [4]). Further, the “reduction in mTORC1 p4EBP1 activity on going from 8 PEG units to 6 PEG units” value in assay [1] is recorded as more than 30 fold.

Source of the values: article PMC9841523 (Journal of Medicinal Chemistry, 2022).
